Source: patent US6362212B1, “Oxime derivative and bactericide containing the same as active ingredient” (Shionogi & Company, Ltd., priority 1994, dated 2002)

Experiments:
Assay type in all cases: in vivo
[1] = tested on: Pyricularia oryzae; conditions: foliage spray on rice seedlings (cv. […]), number of lesions six days after the inoculation
[2] = tested on: Erysiphe graminis f. sp. tritici; test: Controlling effect on Erysiphe graminis f. sp. tritici by foliage application (pot experiment); conditions: foliage spray on wheat (cv. NORIN No. 61) seedlings, infected area after 10 days in greenhouse at 20° C.
Description: The following Test Examples illustrate the effects of the fungicide of the present invention. (I. Controlling effects on various plant diseases by foliage application (pot experiment)) A test compound was dissolved in a small amount of N,N-dimethylformamide, and the solution was diluted to a given concentration with distilled water containing a spreader. Thus, a liquid sample to be tested was prepared. The liquid sample was sprayed to test plants, and 24 hours thereafter, pathogens were inoculated by the method described below. […] The seeds of wheat (cv.: NORIN No. 61) were sown in plastic cups (each 9 cm in diameter), followed by cultivation for 2 to 3 weeks. The test compound in the form of a solution or suspension was sprayed to the seedlings, and conidia of Erysiphe graminis f. sp. tritici cultured on wheat leaves were dropped on the test plants to inoculate the plants with the pathogen. After the inoculation, the plants were kept in a greenhouse at 20° C. for 10 days. The infected area on the leaf was observed, and the percent control was calculated.

[3] = tested on: Sphaerotheca fuliginea; test: Controlling effect on Sphaerotheca fuliginea by foliage application (pot experiment); conditions: foliage spray on cucumber (cv. TSUKUBASHIROIBO) first leaves, infected area after 10 days in greenhouse at 20° C.
Description: The following Test Examples illustrate the effects of the fungicide of the present invention. (I. Controlling effects on various plant diseases by foliage application (pot experiment)) A test compound was dissolved in a small amount of N,N-dimethylformamide, and the solution was diluted to a given concentration with distilled water containing a spreader. Thus, a liquid sample to be tested was prepared. The liquid sample was sprayed to test plants, and 24 hours thereafter, pathogens were inoculated by the method described below. […] Seeds of cucumber ([…]) were sown in plastic cups (each 9 cm in diameter), followed by cultivation for 2 to 3 weeks. The liquid test sample in the form of a solution or suspension was sprayed on the surface of their first leaves. The pathogen was inoculated to the leaves by spraying a conidia suspension of Sphaerotheca fuliginea which had been cultured on the cucumber leaves. After the inoculation, the plants were kept in a greenhouse at 20° C. for 10 days. Then, the infected area on the leaf was observed, and the percent control was calculated.

Row | Structure (SMILES) | Controlling effect on PYricularia orYzae by foliage application at 500 ppm (percent control) [1] [percent control] | Controlling effect on ErYsiphe graminis f. sp. tritici by foliage application at 500 ppm (percent control) [2] [percent control] | Controlling effect on Sphaerotheca fuliginea by foliage application at 500 ppm (percent control) [3] [percent control]
1 | CON=C(c1ccccc1COc1ccc(Cl)cc1)n1cccn1 [compound 287] | 90 |  | 
2 | CON=C(c1ccccc1COc1ccccc1)n1cccn1 [compound 281] | 70 | 90 | 
3 | CCON=C(c1ccccc1COc1ccccc1)n1cccn1 [compound 295] | 90 | 90 | 
4 | CON=C(c1ccccc1COc1ccccc1OC)c1nccn1C (single isomer, unassigned) [118B] | 70 |  | 
5 | CON=C(c1ccccc1COc1cccc(Cl)c1)n1cnc(C)c1 [compound 226] | 70 | 70 | 70
6 | O=C1OCc2c(Cl)c(Cl)c(Cl)c(Cl)c21 [Fthalide, reference compound] | 97 |  | 
7 | CON=C(c1noc(C)n1)c1ccccc1COc1ccccc1C [Compound No. 912] | 70 | 90 | 100
8 | CON=C(C1=NCCO1)c1ccccc1COc1ccccc1C [compound 1310] | 70 | 90 | 90
9 | CON=C(c1ccccc1COc1cc(C)ccc1C)c1ccnn1C (single isomer, unassigned) [1554A] | 70 | 70 | 
10 | CON=C(c1ccon1)c1ccccc1COc1cccc(C(F)(F)F)c1 (mixture of isomers) [compound 322] | 70 | 70 | 100
11 | CON=C(c1ncno1)c1ccccc1COc1ccccc1 [compound 1581] | 70 |  | 70
12 | CON=C(c1ncon1)c1ccccc1COc1ccccc1C [Compound No. 812] | 70 | 100 | 100
13 | CON=C(c1ccccc1COc1ccc(F)cc1)c1nccn1C (single isomer, unassigned) [104A] |  | 90 | 97
14 | CON=C(c1ccccc1COc1ccccc1)n1cnc(C)c1 [compound 221] | 70 | 70 | 97
15 | CON=C(c1ccccc1CON=C(C)c1ccccc1)n1ccnc1 [compound 3041] | 90 |  | 97
16 | CON=C(c1cc(C)no1)c1ccccc1COc1ccc(Cl)cc1C (single isomer, unassigned) [641B] |  | 90 | 100
17 | CON=C(c1ccccc1COc1ccc(Cl)cc1)c1nccn1C (single isomer, unassigned) [107A] | 90 | 70 | 100

Row | Structure (SMILES) | Controlling effect on PYricularia orYzae by foliage application at 500 ppm (percent control) [1] [percent control] | Controlling effect on ErYsiphe graminis f. sp. tritici by foliage application at 500 ppm (percent control) [2] [percent control] | Controlling effect on Sphaerotheca fuliginea by foliage application at 500 ppm (percent control) [3] [percent control]
18 | CON=C(c1ccccc1COc1ccccc1Cl)n1cnc(C)c1 [compound 225] | 70 |  | 
19 | CON=C(c1cnco1)c1ccccc1Oc1ccccc1 [compound 1735] |  | 97 | 100
20 | CON=C(C1=NCCN1C)c1ccccc1COc1ccc(C(F)(F)F)cc1 [compound 1123] |  | 90 | 90
21 | CON=C(C1=NCCN1)c1ccccc1COc1cccc(C)c1 (mixture of isomers) [compound 1461] | 70 |  | 
22 | CON=C(c1ccccc1COc1ccccc1)n1cncn1 [compound 261] | 70 | 97 | 97
23 | CON=C(c1ccccc1COc1cc(C)ccc1C)n1ccnc1 [Compound No. 39] | 70 |  | 100
24 | CON=C(c1ccccc1COc1ccc(Cl)cc1C)c1nccn1C (single isomer, unassigned) [141B] | 70 |  | 100
25 | CON=C(c1ccccc1COc1cccc(Cl)c1)n1cncn1 [compound 266] | 90 | 97 | 97
26 | CON=C(c1ncon1)c1ccccc1COc1cc(C)ccc1C (single isomer, unassigned) [836A] |  | 97 | 100
27 | CON=C(c1ccccc1COc1ccc(C)cc1)c1nccn1C (single isomer, unassigned) [114A] | 90 | 90 | 100
28 | CON=C(C1=NCCN1C)c1ccccc1COc1cccc(C(F)(F)F)c1 (single isomer, unassigned) [1122B] |  | 90 | 100
29 | CON=C(c1ccccc1Oc1ccccc1)n1cccn1 [compound 300] | 70 |  | 70
30 | CON=C(C1=NCCN1)c1ccccc1COc1ccccc1C [compound 1460] | 90 | 90 | 
31 | CON=C(c1ccccc1COc1ccc(C)cc1)n1cncn1 [compound 270] |  | 90 | 97
32 | CON=C(c1ccccc1COc1ccccc1)n1ccnc1C [compound 241] | 70 |  | 
33 | CCON=C(c1ccon1)c1ccccc1COc1cc(C)ccc1C (mixture of isomers) [compound 1674] | 70 | 70 | 70
